Assay results published in ChEMBL document CHEMBL5465560, “Selectivity Literature for EUbOPEN Chemogenomic Library” (2024).
Values belong to the molecule of their own block, whether it stands above or below them.

Assays:
[1] = target: Gamma-aminobutyric acid type B receptor subunit 1 (Homo sapiens) (UniProt Q9UBS5); assay: Selectivity interaction (Eurofins CEREP Diversity Profile (receptors and ion channels)) EUB0000279b GABBR1; conditions: at 10 µM
[2] = target: Mitogen-activated protein kinase kinase kinase kinase 1 (Homo sapiens) (UniProt Q92918); assay: Selectivity interaction (ActivX KiNativ screen (kinase selectivity in THP-1 cell lysates)) EUB0000639a MAP4K1; assay type: subcellular; conditions: lysate, at 5 µM
Mitogen-activated protein kinase kinase kinase kinase 1 (Homo sapiens), sequence (Q92918 whole entry, looked up): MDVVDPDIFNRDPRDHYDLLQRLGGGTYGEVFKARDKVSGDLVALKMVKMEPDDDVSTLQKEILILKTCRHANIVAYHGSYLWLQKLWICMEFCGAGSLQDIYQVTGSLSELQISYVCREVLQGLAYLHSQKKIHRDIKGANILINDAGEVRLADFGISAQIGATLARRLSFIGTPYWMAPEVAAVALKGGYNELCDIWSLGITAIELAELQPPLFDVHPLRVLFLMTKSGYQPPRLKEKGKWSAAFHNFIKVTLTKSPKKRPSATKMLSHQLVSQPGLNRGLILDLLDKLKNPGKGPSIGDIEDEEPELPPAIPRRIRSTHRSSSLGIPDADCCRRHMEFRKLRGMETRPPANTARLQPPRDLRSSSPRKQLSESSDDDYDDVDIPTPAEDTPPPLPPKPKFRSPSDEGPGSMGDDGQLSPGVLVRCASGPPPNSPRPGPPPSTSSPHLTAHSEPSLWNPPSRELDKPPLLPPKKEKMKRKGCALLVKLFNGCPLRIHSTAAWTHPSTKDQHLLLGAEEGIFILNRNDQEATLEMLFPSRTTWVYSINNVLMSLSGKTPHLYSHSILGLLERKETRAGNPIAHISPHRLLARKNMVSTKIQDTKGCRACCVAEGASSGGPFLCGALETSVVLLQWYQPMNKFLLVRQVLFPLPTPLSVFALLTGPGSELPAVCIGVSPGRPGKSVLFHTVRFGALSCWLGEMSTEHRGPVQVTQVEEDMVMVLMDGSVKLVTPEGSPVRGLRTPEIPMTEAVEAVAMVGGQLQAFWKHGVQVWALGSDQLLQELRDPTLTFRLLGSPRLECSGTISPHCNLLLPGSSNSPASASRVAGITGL

[3] = target: T1, Serine/threonine-protein kinase LATS1 (Homo sapiens) (UniProt O95835); assay: Selectivity interaction (KinomeScan (DiscoverX)) EUB0000695a LATS1; conditions: at 100 nM
T1 sequence (whole entry): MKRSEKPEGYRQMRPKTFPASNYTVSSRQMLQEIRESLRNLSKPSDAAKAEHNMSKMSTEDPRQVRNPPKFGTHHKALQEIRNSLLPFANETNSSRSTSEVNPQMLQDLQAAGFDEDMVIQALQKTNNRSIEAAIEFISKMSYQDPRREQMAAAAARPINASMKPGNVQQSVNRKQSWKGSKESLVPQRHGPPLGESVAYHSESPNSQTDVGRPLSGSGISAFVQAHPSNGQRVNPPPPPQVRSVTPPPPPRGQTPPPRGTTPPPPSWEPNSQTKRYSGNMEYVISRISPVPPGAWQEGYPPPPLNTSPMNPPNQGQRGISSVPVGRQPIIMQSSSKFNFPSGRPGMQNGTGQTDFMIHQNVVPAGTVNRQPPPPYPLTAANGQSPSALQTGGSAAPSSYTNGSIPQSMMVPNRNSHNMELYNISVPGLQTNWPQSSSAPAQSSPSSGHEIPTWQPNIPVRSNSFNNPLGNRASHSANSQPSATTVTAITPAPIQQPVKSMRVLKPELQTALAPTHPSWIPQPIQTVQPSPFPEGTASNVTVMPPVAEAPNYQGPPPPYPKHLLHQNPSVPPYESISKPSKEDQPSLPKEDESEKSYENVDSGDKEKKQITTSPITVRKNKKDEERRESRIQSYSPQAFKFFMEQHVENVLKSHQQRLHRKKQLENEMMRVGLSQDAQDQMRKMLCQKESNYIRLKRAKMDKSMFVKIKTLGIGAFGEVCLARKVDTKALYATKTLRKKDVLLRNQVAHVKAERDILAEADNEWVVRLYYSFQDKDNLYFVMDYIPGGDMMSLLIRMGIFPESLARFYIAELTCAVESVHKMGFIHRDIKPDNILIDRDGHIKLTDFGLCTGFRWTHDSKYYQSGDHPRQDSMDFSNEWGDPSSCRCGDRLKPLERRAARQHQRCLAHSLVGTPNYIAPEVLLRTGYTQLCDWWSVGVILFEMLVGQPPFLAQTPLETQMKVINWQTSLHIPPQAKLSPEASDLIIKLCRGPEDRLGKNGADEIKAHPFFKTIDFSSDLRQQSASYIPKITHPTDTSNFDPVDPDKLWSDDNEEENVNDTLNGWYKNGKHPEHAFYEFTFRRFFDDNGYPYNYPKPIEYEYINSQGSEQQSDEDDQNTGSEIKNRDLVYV

[4] = target: T2, Tyrosine-protein kinase JAK3 (Homo sapiens) (UniProt P52333); assay: Selectivity interaction (ActivX KiNativ screen (ex vivo kinase selectivity in human PBMCs)) EUB0001619a JAK3; assay type: cell-based; conditions: PBMC, at 1 µM
T2 sequence (whole entry): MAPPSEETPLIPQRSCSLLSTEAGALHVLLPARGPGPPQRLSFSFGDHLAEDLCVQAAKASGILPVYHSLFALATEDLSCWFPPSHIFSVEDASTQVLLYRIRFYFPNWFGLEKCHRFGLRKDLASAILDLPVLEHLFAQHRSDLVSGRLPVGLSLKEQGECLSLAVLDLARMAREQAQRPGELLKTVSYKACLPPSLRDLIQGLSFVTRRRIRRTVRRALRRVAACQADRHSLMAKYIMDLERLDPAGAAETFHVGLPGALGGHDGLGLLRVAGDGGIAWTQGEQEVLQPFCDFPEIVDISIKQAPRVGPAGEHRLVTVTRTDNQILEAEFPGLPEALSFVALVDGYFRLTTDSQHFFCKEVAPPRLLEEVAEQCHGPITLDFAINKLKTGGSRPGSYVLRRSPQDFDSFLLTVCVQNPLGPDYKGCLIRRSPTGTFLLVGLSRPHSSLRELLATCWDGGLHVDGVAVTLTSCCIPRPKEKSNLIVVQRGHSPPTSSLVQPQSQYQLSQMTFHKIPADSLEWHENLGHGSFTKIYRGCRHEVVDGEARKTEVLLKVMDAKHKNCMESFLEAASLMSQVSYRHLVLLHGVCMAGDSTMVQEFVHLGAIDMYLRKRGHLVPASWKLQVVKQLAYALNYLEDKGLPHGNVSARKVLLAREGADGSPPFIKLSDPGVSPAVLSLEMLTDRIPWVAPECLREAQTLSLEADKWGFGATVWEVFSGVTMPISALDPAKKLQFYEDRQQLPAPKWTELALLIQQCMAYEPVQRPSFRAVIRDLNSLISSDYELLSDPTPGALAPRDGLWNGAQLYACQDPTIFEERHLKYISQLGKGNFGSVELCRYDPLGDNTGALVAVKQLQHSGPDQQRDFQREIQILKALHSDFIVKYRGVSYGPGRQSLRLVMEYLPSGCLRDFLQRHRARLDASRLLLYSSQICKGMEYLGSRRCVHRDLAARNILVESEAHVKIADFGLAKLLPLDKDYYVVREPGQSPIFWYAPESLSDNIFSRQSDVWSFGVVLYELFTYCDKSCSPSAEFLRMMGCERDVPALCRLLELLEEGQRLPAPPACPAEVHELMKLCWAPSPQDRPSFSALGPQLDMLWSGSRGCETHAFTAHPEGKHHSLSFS

Gamma-aminobutyric acid type B receptor subunit 1 (Homo sapiens), sequence (Q9UBS5 whole entry): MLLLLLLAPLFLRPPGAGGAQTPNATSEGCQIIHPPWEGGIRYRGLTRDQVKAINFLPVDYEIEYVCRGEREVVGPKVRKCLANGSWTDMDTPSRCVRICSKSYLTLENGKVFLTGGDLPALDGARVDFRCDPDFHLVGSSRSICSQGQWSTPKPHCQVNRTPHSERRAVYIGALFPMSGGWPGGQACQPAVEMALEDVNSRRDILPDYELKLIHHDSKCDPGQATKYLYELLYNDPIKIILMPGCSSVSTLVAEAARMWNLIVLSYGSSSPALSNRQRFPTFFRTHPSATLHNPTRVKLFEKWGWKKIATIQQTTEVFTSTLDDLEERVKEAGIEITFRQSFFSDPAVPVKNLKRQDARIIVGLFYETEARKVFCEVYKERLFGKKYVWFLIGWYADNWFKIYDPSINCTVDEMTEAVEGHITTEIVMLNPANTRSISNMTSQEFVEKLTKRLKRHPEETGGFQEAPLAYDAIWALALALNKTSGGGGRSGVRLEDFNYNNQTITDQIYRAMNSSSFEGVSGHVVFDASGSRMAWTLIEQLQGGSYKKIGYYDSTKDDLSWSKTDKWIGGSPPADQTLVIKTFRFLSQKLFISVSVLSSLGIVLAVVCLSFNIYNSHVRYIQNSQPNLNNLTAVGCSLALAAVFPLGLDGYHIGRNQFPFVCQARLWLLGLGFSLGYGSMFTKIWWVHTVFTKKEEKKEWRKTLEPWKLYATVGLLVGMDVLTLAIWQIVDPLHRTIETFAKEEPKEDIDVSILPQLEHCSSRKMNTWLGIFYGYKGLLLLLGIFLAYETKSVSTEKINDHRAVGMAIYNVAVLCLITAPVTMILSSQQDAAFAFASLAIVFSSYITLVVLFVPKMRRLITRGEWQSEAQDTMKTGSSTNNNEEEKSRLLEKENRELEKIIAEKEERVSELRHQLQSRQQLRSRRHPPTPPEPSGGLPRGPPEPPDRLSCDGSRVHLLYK

% of control [1]: 100%
Compound: CC(=O)c1cc(-c2ccccc2OCC2CC2)c2ncccn12

% of inhibition [2]: -4.3%
Compound: CC[C@@H]1[C@H](F)C(=O)N[C@@H]1COc1nccc2cc(C(N)=O)c(OC)cc12 [ZIMLOVISERTIB]

Compound: Cc1cc(F)c(C(=O)Nc2cccc(-c3nncn3C(C)C)n2)cc1-n1cnc(C2CC2)c1
% of control [3]: 86%

Compound: N#Cc1cccc(-c2c[nH]c3ncnc(N4CCOCC4)c23)c1
% of inhibition [4]: 6%
